Assay results published in patent US11739074B2, “Ras inhibitors” (Revolution Medicines, Inc., priority 2019, dated 2023).
Read-outs that look alike come from different tables or passages of the source.

Legend:
NRAS Q61K = target: T1, NRAS Q61K (Homo sapiens, UniProt P01111+P62937, Q61K); test: Ras-Raf disruption/FRET/MOA assay, NRAS Q61K; format: biochemical; conditions: NRAS Q61K; read-out: NRAS Q61K FRET data IC50
T1 construct: His6
Description: (§1) Disruption of B-Raf Ras-Binding Domain (BRAF^RBD) Interaction with K-Ras by Compounds of the Invention (Also Called a FRET Assay or an MOA Assay)
(§2) Note—The following protocol describes a procedure for monitoring disruption of K-Ras G12C (GMP-PNP) binding to BRAF^RBD by a compound of the invention. This protocol may also be executed substituting other Ras proteins or nucleotides, such as K-Ras G12D and K-Ras G13D.
(§3) The purpose of this biochemical assay was to measure the ability of test compounds to facilitate ternary complex formation between a nucleotide-loaded K-Ras isoform and Cyclophilin A; the resulting ternary complex disrupts binding to a BRAF^RBD construct, inhibiting K-Ras signaling through a RAF effector.
(§4) In assay buffer containing 25 mM HEPES pH 7.3, 0.002% Tween20, 0.1% BSA, 100 mM NaCl and 5 mM MgCl2, tagless Cyclophilin A, His6-K-Ras-GMPPNP, and GST-BRAF^RBD were combined in a 384-well assay plate at final concentrations of 25 μM, 12.5 nM, and 50 nM, respectively. Compound was present in plate wells as a 10-point 3-fold dilution series starting at a final concentration of 30 μM. After incubation at 25° C. for 3 hours, a mixture of anti-His Eu-W1024 and anti-GST allophycocyanin was then added to assay sample wells at final concentrations of 10 nM and 50 nM, respectively, and the reaction incubated for an additional 1.5 hours. […] Compounds that facilitate disruption of a K-Ras:RAF complex were identified as those eliciting a decrease in the TR-FRET ratio relative to DMSO control wells.

KRAS WT = KRAS WT (Homo sapiens, UniProt P01116+P62937); test: Ras-Raf disruption/FRET/MOA assay, KRAS WT; format: biochemical; conditions: disruption of BRAF RBD binding, with Cyclophilin A; read-out: KRAS WT FRET IC50
Outline: (§5)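 His6-KRAS-GMPPNP (12.5 nM) was combined with tagless Cyclophilin A (25 μM) and GST-BRAF^RBD (50 nM) in pH 7.3 HEPES buffer with NaCl, MgCl2, Tween20 and BSA. Compound was tested as a 10-point 3-fold series from 30 μM final, 3 h at 25° C. Disruption was read as a drop in TR-FRET ratio versus DMSO.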

NRAS WT = target: T2, NRAS WT (Homo sapiens, UniProt P01111+P62937); test: Ras-Raf disruption/FRET/MOA assay, NRAS WT; format: biochemical; conditions: NRAS WT; read-out: NRAS WT FRET data IC50
T2 construct: His6
Description: as §1, §2, §3, §4

KRAS G12S = KRAS G12S (Homo sapiens, UniProt P01116+P62937, G12S); test: Ras-Raf disruption/FRET/MOA assay, KRAS G12S; format: biochemical; conditions: disruption of BRAF RBD binding, with Cyclophilin A; read-out: KRAS G12S FRET IC50
Outline: as §5

KRAS G12V = KRAS G12V (Homo sapiens, UniProt P01116+P62937, G12V); test: Ras-Raf disruption/FRET/MOA assay, KRAS G12V; format: biochemical; conditions: disruption of BRAF RBD binding, with Cyclophilin A; read-out: KRAS G12V FRET IC50
Outline: as §5

NRAS G12C = target: T3, NRAS G12C (Homo sapiens, UniProt P01111+P62937, G12C); test: Ras-Raf disruption/FRET/MOA assay, NRAS G12C; format: biochemical; conditions: NRAS G12C; read-out: NRAS G12C FRET data IC50
T3 construct: His6
Outline: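 Disruption of Ras:RAF binding was read as a drop in TR-FRET ratio versus DMSO controls. The buffer was 25 mM HEPES pH 7.3, 0.002% Tween20, 0.1% BSA, 100 mM NaCl and 5 mM MgCl2. Compounds were tested as a 10-point 3-fold dilution series from 30 μM. Detection used 10 nM anti-His Eu-W1024 and 50 nM anti-GST allophycocyanin.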

KRAS G13C = KRAS G13C (Homo sapiens, UniProt P01116+P62937, G13C); test: Ras-Raf disruption/FRET/MOA assay, KRAS G13C; format: biochemical; conditions: disruption of BRAF RBD binding, with Cyclophilin A; read-out: KRAS G13C FRET IC50
Outline: as §5

KRAS G13D = KRAS G13D (Homo sapiens, UniProt P01116+P62937, G13D); test: Ras-Raf disruption/FRET/MOA assay, KRAS G13D; format: biochemical; conditions: disruption of BRAF RBD binding, with Cyclophilin A; read-out: KRAS G13D FRET IC50
Outline: as §5

KRAS Q61H = KRAS Q61H (Homo sapiens, UniProt P01116+P62937, Q61H); test: Ras-Raf disruption/FRET/MOA assay, KRAS Q61H; format: biochemical; conditions: KRAS Q61H; read-out: KRAS Q61H FRET data IC50
Description: as §1, §2, §3, §4

KRAS G12C = KRAS G12C (Homo sapiens, UniProt P01116+P62937, G12C); test: Ras-Raf disruption/FRET/MOA assay, KRAS G12C; format: biochemical; conditions: disruption of BRAF RBD binding, with Cyclophilin A; read-out: KRAS G12C FRET IC50
Outline: as §5

NRAS Q61R = target: T4, NRAS Q61R (Homo sapiens, UniProt P01111+P62937, Q61R); test: Ras-Raf disruption/FRET/MOA assay, NRAS Q61R; format: biochemical; conditions: NRAS Q61R; read-out: NRAS Q61R FRET data IC50
T4 construct: His6
Description: as §1, §2, §3, §4

AsPC-1 (K-Ras G12D) [1] = test: CellTiter-Glo cell viability assay, AsPC-1; format: cell-based; conditions: Homo sapiens, ASPC1, 120 h, read-out: AsPC-1 Cell Viability IC50
Outline: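 Luminescence from CellTiter-Glo serves as the viability read-out after cells are treated with compound for 5 days. Each well's signal is divided by the DMSO average and multiplied by 100, and curves are fitted by four-parameter logistic regression.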

KRAS G12D = KRAS G12D (Homo sapiens, UniProt P01116+P62937, G12D); test: Ras-Raf disruption/FRET/MOA assay, KRAS G12D; format: biochemical; conditions: disruption of BRAF RBD binding, with Cyclophilin A; read-out: KRAS G12D FRET IC50
Outline: as §5

AsPC-1 (K-Ras G12D) [2] = test: Potency assay: pERK in AsPC-1 cells; format: cell-based; conditions: Homo sapiens, ASPC1; AsPC-1 cells, K-Ras G12D; read-out: pERK EC50 (AsPC-1 KRAS G12D)
[3] = AsPC-1, K-Ras G12D, 5-day treatment

KRAS G13C, sequence (P01116 1-169 isoform P01116-2 G13C limits assumed): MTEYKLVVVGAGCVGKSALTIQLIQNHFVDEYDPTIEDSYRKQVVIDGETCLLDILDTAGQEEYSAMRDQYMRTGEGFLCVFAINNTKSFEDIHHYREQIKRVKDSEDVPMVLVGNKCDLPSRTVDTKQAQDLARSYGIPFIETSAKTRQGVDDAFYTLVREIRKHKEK
KRAS G13C, sequence (P62937 whole entry): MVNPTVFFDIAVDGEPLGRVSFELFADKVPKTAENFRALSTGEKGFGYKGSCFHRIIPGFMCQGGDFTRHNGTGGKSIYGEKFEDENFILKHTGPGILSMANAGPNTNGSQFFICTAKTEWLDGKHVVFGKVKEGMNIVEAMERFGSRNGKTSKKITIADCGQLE
KRAS G12C, sequence (P01116 1-169 isoform P01116-2 G12C limits assumed): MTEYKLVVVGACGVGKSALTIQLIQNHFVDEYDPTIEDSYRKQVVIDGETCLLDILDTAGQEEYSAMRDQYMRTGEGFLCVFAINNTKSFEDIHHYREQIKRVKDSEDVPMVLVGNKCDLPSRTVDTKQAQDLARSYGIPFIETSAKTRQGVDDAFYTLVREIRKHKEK
KRAS G12C, sequence (P62937 whole entry): as the sequence (P62937 whole entry) above
KRAS G12S, sequence (P01116 1-169 isoform P01116-2 G12S limits assumed): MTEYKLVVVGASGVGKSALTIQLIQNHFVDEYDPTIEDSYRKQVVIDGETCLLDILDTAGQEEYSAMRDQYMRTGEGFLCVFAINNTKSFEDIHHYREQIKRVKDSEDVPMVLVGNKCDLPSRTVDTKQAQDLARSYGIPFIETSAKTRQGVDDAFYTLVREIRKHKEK
KRAS G12S, sequence (P62937 whole entry): as the sequence (P62937 whole entry) above
KRAS G13D, sequence (P01116 1-169 isoform P01116-2 G13D limits assumed): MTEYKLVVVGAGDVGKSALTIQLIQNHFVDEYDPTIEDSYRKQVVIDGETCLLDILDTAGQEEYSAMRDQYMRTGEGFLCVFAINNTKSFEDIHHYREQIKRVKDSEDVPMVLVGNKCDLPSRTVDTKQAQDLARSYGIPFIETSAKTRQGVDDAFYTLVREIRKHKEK
KRAS G13D, sequence (P62937 whole entry): as the sequence (P62937 whole entry) above
T1 sequence (P01111 whole entry Q61K): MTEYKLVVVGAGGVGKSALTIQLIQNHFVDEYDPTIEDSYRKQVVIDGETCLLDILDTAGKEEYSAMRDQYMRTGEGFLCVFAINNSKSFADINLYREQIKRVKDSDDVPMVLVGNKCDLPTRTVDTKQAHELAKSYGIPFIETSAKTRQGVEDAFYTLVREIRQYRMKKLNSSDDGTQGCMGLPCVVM
T1 sequence (P62937 whole entry): as the sequence (P62937 whole entry) above
T2 sequence (P01111 whole entry): as the sequence (P01111 whole entry Q61K) above, with K61Q counted along it
T2 sequence (P62937 whole entry): as the sequence (P62937 whole entry) above
T4 sequence (P01111 whole entry Q61R): as the sequence (P01111 whole entry Q61K) above, with K61R counted along it
T4 sequence (P62937 whole entry): as the sequence (P62937 whole entry) above
KRAS G12V, sequence (P01116 1-169 isoform P01116-2 G12V limits assumed): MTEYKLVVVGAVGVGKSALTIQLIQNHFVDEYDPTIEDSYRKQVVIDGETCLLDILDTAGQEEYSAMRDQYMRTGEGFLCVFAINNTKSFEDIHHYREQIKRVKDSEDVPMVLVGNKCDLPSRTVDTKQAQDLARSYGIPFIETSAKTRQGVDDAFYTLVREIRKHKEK
KRAS G12V, sequence (P62937 whole entry): as the sequence (P62937 whole entry) above
KRAS Q61H, sequence (P01116 1-169 isoform P01116-2 Q61H limits assumed): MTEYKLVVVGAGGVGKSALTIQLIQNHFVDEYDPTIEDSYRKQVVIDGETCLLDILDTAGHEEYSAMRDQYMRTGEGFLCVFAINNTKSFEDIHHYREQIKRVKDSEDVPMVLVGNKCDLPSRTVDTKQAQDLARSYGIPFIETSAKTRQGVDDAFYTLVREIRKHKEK
KRAS Q61H, sequence (P62937 whole entry): as the sequence (P62937 whole entry) above
KRAS G12D, sequence (P01116 1-169 isoform P01116-2 G12D limits assumed): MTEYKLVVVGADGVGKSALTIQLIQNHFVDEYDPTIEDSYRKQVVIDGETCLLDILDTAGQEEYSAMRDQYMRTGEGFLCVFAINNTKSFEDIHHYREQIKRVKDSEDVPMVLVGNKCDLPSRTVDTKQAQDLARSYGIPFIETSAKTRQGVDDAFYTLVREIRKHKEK
KRAS G12D, sequence (P62937 whole entry): as the sequence (P62937 whole entry) above
T3 sequence (P01111 whole entry G12C): as the sequence (P01111 whole entry Q61K) above, with G12C, K61Q counted along it
T3 sequence (P62937 whole entry): as the sequence (P62937 whole entry) above
KRAS WT, sequence (P01116 1-169 isoform P01116-2 limits assumed): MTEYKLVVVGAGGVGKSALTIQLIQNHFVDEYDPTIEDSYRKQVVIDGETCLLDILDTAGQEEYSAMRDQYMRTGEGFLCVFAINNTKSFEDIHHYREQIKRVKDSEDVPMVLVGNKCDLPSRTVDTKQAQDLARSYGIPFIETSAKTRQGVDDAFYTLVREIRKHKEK
KRAS WT, sequence (P62937 whole entry): as the sequence (P62937 whole entry) above

Structure (SMILES)	IC50 (NRAS Q61K) [µM]	IC50 (KRAS WT) [µM]	IC50 (NRAS WT) [µM]	IC50 (KRAS G12S) [µM]	IC50 (KRAS G12V) [µM]	IC50 (NRAS G12C) [µM]	IC50 (KRAS G13C) [µM]	IC50 (KRAS G13D) [µM]	IC50 (KRAS Q61H) [µM]	IC50 (KRAS G12C) [µM]	IC50 (NRAS Q61R) [µM]	IC50 (AsPC-1 (K-Ras G12D) [1]) [µM]	IC50 (KRAS G12D) [µM]	EC50 (AsPC-1 (K-Ras G12D) [2]) [µM]	IC50 (AsPC-1 (K-Ras G12D) [1]; [3]) [µM]
CCn1c(-c2cnccc2COC)c2c3cc(ccc31)-c1cc(O)cc(c1)C[C@H](NC(=O)[C@H](C(C)C)N(C)C(=O)CN(C)C(=O)[C@@H]1CN1S(C)(=O)=O)C(=O)N1CCC[C@H](N1)C(=O)OCC(C)(C)C2 (stereo partly shown) [Compound 37]	0.1 to 1	0.01 to 0.1	0.01 to 0.1	0.01 to 0.1	0.1 to 1	0.01 to 0.1	0.01 to 0.1	0.1 to 1	0.01 to 0.1	0.01 to 0.1	0.1 to 1	> 10	0.1 to 1	–	–
CCn1c(-c2cccnc2[C@H](C)OC)c2c3cc(ccc31)-c1cc(O)cc(c1)C[C@H](NC(=O)[C@H](C1CCCC1)N1CC[C@@]3(CCN(C(=O)[C@@H]4N[C@@H]4C4CC4)C3)C1=O)C(=O)N1CCC[C@H](N1)C(=O)OCC(C)(C)C2 [Compound 215]	1 to 10	0.1 to 1	0.1 to 1	0.1 to 1	0.1 to 1	0.01 to 0.1	0.01 to 0.1	0.1 to 1	0.01 to 0.1	0.01 to 0.1	1 to 10	–	0.1 to 1	< 5	1 to 10
CCn1c(-c2cccnc2[C@H](C)OC)c2c3cc(ccc31)-c1cc(O)cc(c1)C[C@H](NC(=O)[C@H](C(C)C)N1CO[C@@]3(CCN(C(=O)[C@H]4CN4)C3)C1=O)C(=O)N1CCC[C@H](N1)C(=O)OCC(C)(C)C2 [Compound 232]	0.1 to 1	0.1 to 1	0.1 to 1	0.1 to 1	0.1 to 1	0.01 to 0.1	0.01 to 0.1	0.1 to 1	0.01 to 0.1	0.01 to 0.1	0.1 to 1	–	1 to 10	< 5	1 to 10
CCn1c(-c2cccnc2[C@H](C)OC)c2c3cc(ccc31)-c1cc(cc(C(F)F)c1)C[C@H](NC(=O)[C@H](C1CCCC1)N1CC[C@]3(CCN(C(=O)[C@H]4CN4)C3)C1=O)C(=O)N1CCC[C@H](N1)C(=O)OCC(C)(C)C2 [Compound 233]	1 to 10	1 to 10	1 to 10	1 to 10	1 to 10	0.1 to 1	0.1 to 1	1 to 10	0.1 to 1	0.1 to 1	> 10	–	1 to 10	< 5	1 to 10
